By IC50 is commonly meant the point on the concentration scale where inhibition reaches its midpoint.

The text below walks through data of patent US9051311B2, “Sulfamide sodium channel inhibitors” (AMGEN INC., priority 2012, dated 2015).

Where a name gives a salt, the structure may show the parent alone.

Series [1] deals with T1, Nav 1.7 (Homo sapiens (Human), UniProt Q15858). The series can be described thus: Nav 1.7 IonWorks Quattro (IWQ) in vitro assay, population patch-clamp.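 Note: cells held at −110 mV for 3 s, then 26 pulses of 150 ms at 5 Hz, leak-corrected peak current, percent block measured before and after compound, 3–8 min exposure.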 Format: cell-based. The following applies: 293 cells stably transfected with Nav 1.7; block at 26th pulse to −20 mV. (In general: The patch-clamp technique gives a direct electrical read-out from membranes.)
T1 sequence (Q15858 whole entry): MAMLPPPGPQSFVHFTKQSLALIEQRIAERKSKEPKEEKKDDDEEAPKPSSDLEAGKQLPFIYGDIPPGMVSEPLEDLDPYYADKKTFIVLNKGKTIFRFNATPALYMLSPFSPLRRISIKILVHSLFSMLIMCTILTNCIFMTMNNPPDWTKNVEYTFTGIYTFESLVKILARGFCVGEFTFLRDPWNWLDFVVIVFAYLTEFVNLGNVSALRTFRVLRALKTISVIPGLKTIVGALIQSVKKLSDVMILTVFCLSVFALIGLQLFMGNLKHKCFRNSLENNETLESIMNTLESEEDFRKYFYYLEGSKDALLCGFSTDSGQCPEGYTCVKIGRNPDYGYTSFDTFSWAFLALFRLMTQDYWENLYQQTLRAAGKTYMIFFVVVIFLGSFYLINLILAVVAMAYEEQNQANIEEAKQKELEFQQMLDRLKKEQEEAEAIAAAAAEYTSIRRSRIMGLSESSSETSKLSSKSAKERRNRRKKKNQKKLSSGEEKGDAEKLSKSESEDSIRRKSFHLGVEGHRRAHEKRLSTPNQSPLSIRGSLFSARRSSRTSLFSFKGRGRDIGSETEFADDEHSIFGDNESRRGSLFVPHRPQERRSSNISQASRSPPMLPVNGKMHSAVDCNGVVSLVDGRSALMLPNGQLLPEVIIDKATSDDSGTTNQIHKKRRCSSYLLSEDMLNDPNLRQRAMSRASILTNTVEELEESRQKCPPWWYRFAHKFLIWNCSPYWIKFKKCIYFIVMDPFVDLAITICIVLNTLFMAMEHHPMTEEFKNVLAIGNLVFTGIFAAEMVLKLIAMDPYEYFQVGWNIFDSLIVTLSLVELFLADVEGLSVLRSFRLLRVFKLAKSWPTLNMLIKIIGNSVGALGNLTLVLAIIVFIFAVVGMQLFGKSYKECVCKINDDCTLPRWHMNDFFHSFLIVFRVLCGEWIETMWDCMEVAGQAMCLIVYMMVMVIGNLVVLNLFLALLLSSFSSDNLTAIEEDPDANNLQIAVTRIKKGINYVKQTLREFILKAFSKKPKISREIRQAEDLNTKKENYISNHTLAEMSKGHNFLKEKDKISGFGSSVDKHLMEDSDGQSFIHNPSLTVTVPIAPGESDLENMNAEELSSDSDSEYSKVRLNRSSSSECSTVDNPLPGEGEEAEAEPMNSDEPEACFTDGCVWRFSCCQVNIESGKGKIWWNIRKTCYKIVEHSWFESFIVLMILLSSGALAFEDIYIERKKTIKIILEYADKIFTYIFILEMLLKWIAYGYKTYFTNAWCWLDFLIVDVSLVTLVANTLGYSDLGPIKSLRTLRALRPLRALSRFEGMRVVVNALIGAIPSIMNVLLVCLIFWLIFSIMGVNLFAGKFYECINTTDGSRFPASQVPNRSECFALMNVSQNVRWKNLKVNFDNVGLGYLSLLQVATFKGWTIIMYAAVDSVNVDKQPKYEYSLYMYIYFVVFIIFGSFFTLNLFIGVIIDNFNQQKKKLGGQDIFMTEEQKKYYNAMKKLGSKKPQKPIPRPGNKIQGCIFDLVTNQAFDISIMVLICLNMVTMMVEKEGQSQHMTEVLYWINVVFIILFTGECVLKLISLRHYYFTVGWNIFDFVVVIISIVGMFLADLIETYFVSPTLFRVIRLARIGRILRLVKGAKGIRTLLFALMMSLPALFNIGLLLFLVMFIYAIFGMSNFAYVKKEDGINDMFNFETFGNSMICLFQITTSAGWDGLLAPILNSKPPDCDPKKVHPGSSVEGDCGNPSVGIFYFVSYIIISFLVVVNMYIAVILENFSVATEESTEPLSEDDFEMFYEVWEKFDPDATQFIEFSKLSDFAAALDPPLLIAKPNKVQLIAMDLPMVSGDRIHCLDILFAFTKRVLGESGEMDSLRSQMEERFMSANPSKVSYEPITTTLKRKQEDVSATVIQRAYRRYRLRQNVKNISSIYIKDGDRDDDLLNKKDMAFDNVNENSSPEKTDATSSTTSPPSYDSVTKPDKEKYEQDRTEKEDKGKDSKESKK
Method: (§1) Nav 1.7 and Nav 1.5 Ion Works Quattro (IWQ) In Vitro Assays
(§2) 293 cells stably transfected with either Nav 1.7 or with Nav 1.5 were recorded in population patch-clamp mode with the IonWorks® Quattro automated electrophysiology system in accordance with the manufacturer's specifications (Molecular Devices, LLC, Sunnyvale, Calif.). Sodium channel currents were measured in response to a train of depolarizations that induced successively greater inactivation.
(§3) Cells were held at −110 mV for three seconds (Nav 1.7) or half a second (Nav 1.5) from a holding voltage of −15 mV, then put through a series of 26 pulses of 150 msec duration to −20 mV at a frequency of 5 Hz. Cells were then left unclamped for a period of 3 to 8 minutes while a single concentration of test compound was added. Cells were then reclamped and put through the same voltage protocol. Current at the end of the 26th pulse to −20 mV was subtracted from the peak current evoked by the 26th pulse to −20 mV to correct for leak current. Percent block was calculated for each concentration in duplicate, and IC50 curves were fitted to percent block as a function of concentration.
Series [2] deals with T1, Nav 1.7. Description: Nav 1.7 in vitro PatchExpress (PX) assay, whole cell voltage clamp. Format: cell-based. The following applies: 293 cells stably transfected with human Nav1.7; partially inactivated state (20 to 50% inactivation). The procedure: Nav 1.7 In Vitro PatchExpress (PX) Assay
293 cells stably transfected with human Nav1.7 were recorded in whole cell voltage clamp mode with the PatchXpress automated electrophysiology system (Molecular Devices, LLC, Sunnyvale, Calif.). Compound effects were measured on a partially inactivated state of the sodium channel. Cells were clamped to a holding potential yielding 20 to 50% inactivation. To elicit sodium current, channels were activated by pulsing to −10 mV for 20 msec. This voltage protocol was repeated at a rate of 0.1 Hz throughout the experiment. A single concentration of test compound was applied to cells for a duration of 3 minutes. Peak sodium current was measured at the end of the compound addition period to determine percent inhibition.

Series [3] has as its target T2, Nav 1.5 (Homo sapiens (Human), UniProt Q14524). The series can be described thus: Nav 1.5 IonWorks Quattro (IWQ) in vitro assay, population patch-clamp.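 Note: HEK293 cells stably expressing Nav1.5, sodium current at the 26th of 26 pulses to −20 mV (150 ms, 5 Hz) after compound versus before, leak-corrected, 3–8 min exposure.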 The following applies: read-out: Nav 1.5 (IWQ) IC50; 293 cells stably transfected with Nav 1.5; block at 26th pulse to −20 mV.
Method: as §1, §2, §3
Series [4] concerns the target T2, Nav 1.5. Description: cell-based.
Method: as §1, §2, §3

T2 sequence (Q14524 whole entry): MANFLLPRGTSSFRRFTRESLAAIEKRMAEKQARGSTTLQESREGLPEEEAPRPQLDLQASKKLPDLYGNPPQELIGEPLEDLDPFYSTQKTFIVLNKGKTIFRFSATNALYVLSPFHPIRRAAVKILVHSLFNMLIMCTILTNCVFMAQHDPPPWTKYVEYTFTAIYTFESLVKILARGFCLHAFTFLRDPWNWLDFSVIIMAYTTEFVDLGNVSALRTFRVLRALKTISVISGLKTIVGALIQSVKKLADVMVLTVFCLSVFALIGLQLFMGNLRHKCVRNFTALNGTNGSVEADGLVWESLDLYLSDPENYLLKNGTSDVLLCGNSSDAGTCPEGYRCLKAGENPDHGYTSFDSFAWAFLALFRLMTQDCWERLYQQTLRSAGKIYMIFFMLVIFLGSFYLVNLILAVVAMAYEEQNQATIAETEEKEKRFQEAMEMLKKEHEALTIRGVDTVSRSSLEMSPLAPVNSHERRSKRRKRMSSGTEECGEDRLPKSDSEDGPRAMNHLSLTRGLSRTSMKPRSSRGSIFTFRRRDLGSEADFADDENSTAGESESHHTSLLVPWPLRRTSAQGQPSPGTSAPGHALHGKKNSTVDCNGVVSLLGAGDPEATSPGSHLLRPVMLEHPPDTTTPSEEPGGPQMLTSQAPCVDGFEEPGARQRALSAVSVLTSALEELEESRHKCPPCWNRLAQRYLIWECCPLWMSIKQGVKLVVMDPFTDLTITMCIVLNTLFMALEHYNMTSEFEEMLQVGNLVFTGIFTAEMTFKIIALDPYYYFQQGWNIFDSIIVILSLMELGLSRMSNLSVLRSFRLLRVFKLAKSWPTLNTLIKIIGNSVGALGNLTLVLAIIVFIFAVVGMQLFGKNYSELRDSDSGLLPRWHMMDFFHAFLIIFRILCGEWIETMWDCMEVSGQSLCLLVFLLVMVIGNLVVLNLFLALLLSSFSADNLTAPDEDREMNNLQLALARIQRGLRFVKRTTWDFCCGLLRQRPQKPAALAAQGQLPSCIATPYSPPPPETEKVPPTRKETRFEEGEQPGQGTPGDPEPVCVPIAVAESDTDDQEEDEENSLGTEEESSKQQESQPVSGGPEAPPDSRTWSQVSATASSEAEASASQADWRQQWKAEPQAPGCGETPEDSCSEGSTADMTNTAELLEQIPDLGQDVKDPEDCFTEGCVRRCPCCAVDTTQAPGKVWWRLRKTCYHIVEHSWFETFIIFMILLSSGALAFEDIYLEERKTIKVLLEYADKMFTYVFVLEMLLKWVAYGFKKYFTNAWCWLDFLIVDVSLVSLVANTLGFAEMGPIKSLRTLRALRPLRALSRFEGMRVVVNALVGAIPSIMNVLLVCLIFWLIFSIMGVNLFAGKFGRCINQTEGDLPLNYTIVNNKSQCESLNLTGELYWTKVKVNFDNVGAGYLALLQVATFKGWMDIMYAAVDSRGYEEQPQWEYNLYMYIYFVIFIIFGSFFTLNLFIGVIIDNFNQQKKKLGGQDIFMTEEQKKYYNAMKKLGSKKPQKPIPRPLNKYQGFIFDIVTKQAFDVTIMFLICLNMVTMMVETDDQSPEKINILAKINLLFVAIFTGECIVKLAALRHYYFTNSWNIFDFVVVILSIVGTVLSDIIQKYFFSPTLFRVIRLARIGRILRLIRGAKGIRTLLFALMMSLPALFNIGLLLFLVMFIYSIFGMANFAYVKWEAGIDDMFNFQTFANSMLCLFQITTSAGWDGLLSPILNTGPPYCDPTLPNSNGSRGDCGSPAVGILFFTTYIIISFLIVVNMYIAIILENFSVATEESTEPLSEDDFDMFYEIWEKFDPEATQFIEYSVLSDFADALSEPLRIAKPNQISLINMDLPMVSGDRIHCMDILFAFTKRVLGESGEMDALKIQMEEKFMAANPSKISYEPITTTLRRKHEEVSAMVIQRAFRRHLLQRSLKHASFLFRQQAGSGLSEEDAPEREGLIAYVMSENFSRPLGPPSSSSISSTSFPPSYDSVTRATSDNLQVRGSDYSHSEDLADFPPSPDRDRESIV

In the case of `O=S(=O)(Nc1ncns1)N1CCc2c(cccc2-c2ccc(C(F)(F)F)cc2C2=CCNCC2)C1` [Example 6, 5-(2-(1,2,3,6-Tetrahydropyridin-4-yl)-4-(trifluoromethyl)phenyl)-N-(1,2,4-thiadiazol-5-yl)-3,4-dihydroisoquinoline-2(1H)-sulfonamide hydrochloride], the IC50 on Nav 1.7 [1] was 22.1 nM; on Nav 1.7 [2], 30 nM; at Nav 1.5 [3] it was above 10 µM.

As for `CC(C)(C)OC(=O)N1CC=C(c2cc(C(F)(F)F)ccc2-c2cccc3c2CCN(S(=O)(=O)Nc2ncns2)C3)CC1` [Example 5, tert-Butyl 4-(2-(2-(N-(1,2,4-thiadiazol-5-yl)sulfamoyl)-1,2,3,4-tetrahydroisoquinolin-5-yl)-5-(trifluoromethyl)phenyl)-5,6-dihydropyridine-1(2H)-carboxylate], the IC50 stood at 1030 nM against Nav 1.7 [1], 1700 nM on Nav 1.7 [2] and 5.63 µM at Nav 1.5 [3].

For the molecule `O=S(=O)(Nc1cnccn1)N1CCc2c(cccc2-c2ccc(C(F)(F)F)cc2C2=CCNCC2)C1` [Example 53, N-(Pyrazin-2-yl)-5-(2-(1,2,3,6-tetrahydropyridin-4-yl)-4-(trifluoromethyl)phenyl)-3,4-dihydroisoquinoline-2(1H)-sulfonamide hydrochloride], the IC50 was 10500 nM against Nav 1.7 [1] and above 10 µM at Nav 1.5 [3].

As to `O=S(=O)(Nc1ncc(F)s1)N1CCc2c(cccc2-c2ccc(C(F)(F)F)cc2-n2ccnc2)C1` [Example 38, 5-(2-(1H-Imidazol-1-yl)-4-(trifluoromethyl)phenyl)-N-(5-fluorothiazol-2-yl)-3,4-dihydroisoquinoline-2(1H)-sulfonamide], the concentration for half-maximal inhibition (IC50) on Nav 1.7 [1] was 91.7 nM; against Nav 1.7 [2], 690 nM; on Nav 1.5 [4] it was above 10 µM.

For `COc1cc(C(F)(F)F)ccc1-c1ncnc2c1CCN(S(=O)(=O)Nc1ncns1)C2` [Example 61, 4-(2-methoxy-4-(trifluoromethyl)phenyl)-N-(1,2,4-thiadiazol-5-yl)-5,6-dihydropyrido[3,4-d]pyrimidine-7(8H)-sulfonamide], the IC50 was 141 nM at Nav 1.7 [1], 1210 nM against Nav 1.7 [2] and above 10 µM on Nav 1.5 [4].

With `O=S(=O)(Nc1ccncn1)N1CCc2c(cccc2-c2ccc(C(F)(F)F)cc2Br)C1` [Example 56, 5-(2-Bromo-4-(trifluoromethyl)phenyl)-N-(pyrimidin-4-yl)-3,4-dihydroisoquinoline-2(1H)-sulfonamide], the results for the half-inhibitory concentration (IC50) at Nav 1.7 [1], at Nav 1.7 [2] and against Nav 1.5 [4] were 38900 nM, above 10000 nM and above 10 µM, respectively.

In the case of `O=S(=O)(Nc1ncns1)N1CCc2c(cccc2-c2ccc(C(F)(F)F)cc2C2=CCNC2)C1` [Example 34, 5-(2-(2,5-Dihydro-1H-pyrrol-3-yl)-4-(trifluoromethyl)phenyl)-N-(1,2,4-thiadiazol-5-yl)-3,4-dihydroisoquinoline-2(1H)-sulfonamide hydrochloride], the IC50 against Nav 1.7 [1] was 64.5 nM; at Nav 1.7 [2], 50 nM; on Nav 1.5 [4], above 10 µM.

For `O=S(=O)(Nc1ncns1)N1CCc2c(cccc2-c2ccc(Cl)cc2F)C1` [Example 11, 5-(4-Chloro-2-fluorophenyl)-N-(1,2,4-thiadiazol-5-yl)-3,4-dihydroisoquinoline-2(1H)-sulfonamide], the concentration for half-maximal inhibition (IC50) against Nav 1.7 [1] was 4220 nM; against Nav 1.7 [2] it was 7660 nM; on Nav 1.5 [3] it was above 10 µM.

Consider `Cn1cc(-c2cc(C(F)(F)F)ccc2-c2cccc3c2CCN(S(=O)(=O)Nc2ncns2)C3)cn1` [Example 16, 5-(2-(1-Methyl-1H-pyrazol-4-yl)-4-(trifluoromethyl)phenyl)-N-(1,2,4-thiadiazol-5-yl)-3,4-dihydroisoquinoline-2(1H)-sulfonamide], for which the 50% inhibitory concentration (IC50) on Nav 1.7 [1] is 2660 nM; at Nav 1.7 [2] it was 5420 nM; against Nav 1.5 [4], above 10 µM.

`CC(C)(C)OC(=O)N1CCc2c(cccc2-c2cccc3c2CCN(S(=O)(=O)Nc2ncns2)C3)C1` [Example 58, tert-Butyl 2′-(N-(1,2,4-thiadiazol-5-yl)sulfamoyl)-1′,2′,3,3′,4,4′-hexahydro-[5,5′-biisoquinoline]-2(1H)-carboxylate]: the half-inhibitory concentration (IC50) at Nav 1.7 [1] is 15800 nM; against Nav 1.7 [2], 16500 nM; against Nav 1.5 [4], above 10 µM.

In the case of `O=S(=O)(Nc1ncns1)N1CCc2c(cccc2-c2ccc(C(F)(F)F)cc2-c2cccnc2)C1` [Example 22, 5-(2-(Pyridin-3-yl)-4-(trifluoromethyl)phenyl)-N-(1,2,4-thiadiazol-5-yl)-3,4-dihydroisoquinoline-2(1H)-sulfonamide], the half-inhibitory concentration (IC50) is 80.5 nM against Nav 1.7 [1], 470 nM on Nav 1.7 [2] and above 10 µM at Nav 1.5 [4].

With `O=S(=O)(Nc1ccncn1)N1CCc2c(cccc2-c2ccc(C(F)(F)F)cc2C2=CCNCC2)C1` [Example 37, N-(Pyrimidin-4-yl)-5-(2-(1,2,3,6-tetrahydropyridin-4-yl)-4-(trifluoromethyl)phenyl)-3,4-dihydroisoquino line-2(1H)-sulfonamide], the IC50 on Nav 1.7 [1] is 3940 nM; on Nav 1.7 [2] it was 19000 nM; at Nav 1.5 [4], above 10 µM.

Take `O=S(=O)(Nc1ncns1)N1CCc2c(cccc2-c2cccc3c2CCNC3)C1` [Example 13, N-(1,2,4-Thiadiazol-5-yl)-1′,2′,3,3′,4,4′-hexahydro-[5,5′-biisoquinoline]-2(1H)-sulfonamide hydrochloride]: the 50% inhibitory concentration (IC50) on Nav 1.7 [1] was 3870 nM; against Nav 1.7 [2], above 30000 nM; against Nav 1.5 [4], above 10 µM.

Regarding `CN1CCN(c2cc(C(F)(F)F)ccc2-c2cccc3c2CCN(S(=O)(=O)Nc2ncc(F)s2)C3)CC1` [Example 41, N-(5-Fluorothiazol-2-yl)-5-(2-(4-methylpiperazin-1-yl)-4-(trifluoromethyl)phenyl)-3,4-dihydroisoquinoline-2(1H)-sulfonamide], the IC50 at Nav 1.7 [1] is 395 nM; at Nav 1.7 [2], 7340 nM; against Nav 1.5 [4], above 10 µM.

As to `Cn1nccc1-c1cc(C(F)(F)F)ccc1-c1cccc2c1CCN(S(=O)(=O)Nc1ncns1)C2` [Example 1, 5-(2-(1-Methyl-1H-pyrazol-5-yl)-4-(trifluoromethyl)phenyl)-N-(1,2,4-thiadiazol-5-yl)-3,4-dihydroisoquinoline-2(1H)-sulfonamide], the 50% inhibitory concentration (IC50) at Nav 1.7 [1] was 36.3 nM; on Nav 1.7 [2], 120 nM; at Nav 1.5 [4] it was above 10 µM.

On to `O=S(=O)(Nc1ncns1)N1CCc2c(cccc2-c2ccc(C(F)(F)F)cc2Cl)C1` [Example 9, 5-(2-Chloro-4-(trifluoromethyl)phenyl)-N-(1,2,4-thiadiazol-5-yl)-3,4-dihydroisoquinoline-2(1H)-sulfonamide], for which the IC50 was 477 nM against Nav 1.7 [1], 610 nM against Nav 1.7 [2] and above 10 µM against Nav 1.5 [4].

Consider `COc1cccc(OC)c1-c1cccc2c1CCN(S(=O)(=O)Nc1ncns1)C2` [Example 28, 5-(2,6-Dimethoxyphenyl)-N-(1,2,4-thiadiazol-5-yl)-3,4-dihydroisoquinoline-2(1H)-sulfonamide], for which the IC50 on Nav 1.7 [1] is 4670 nM; on Nav 1.7 [2], above 30000 nM; against Nav 1.5 [4] it was above 10 µM.

As for `O=S(=O)(Nc1ncns1)N1CCc2c(cccc2-c2ccc(C(F)(F)F)cc2C2=CCOCC2)C1` [Example 19, 5-(2-(3,6-Dihydro-2H-pyran-4-yl)-4-(trifluoromethyl)phenyl)-N-(1,2,4-thiadiazol-5-yl)-3,4-dihydroisoquinoline-2(1H)-sulfonamide], the 50% inhibitory concentration (IC50) against Nav 1.7 [1] was 378 nM; against Nav 1.7 [2] it was 1710 nM; on Nav 1.5 [4], above 10 µM.

Take `O=S(=O)(Nc1ncns1)N1CCc2c(cccc2-c2cccc3ccccc23)C1` [Example 24, 5-(Naphthalen-1-yl)-N-(1,2,4-thiadiazol-5-yl)-3,4-dihydroisoquinoline-2(1H)-sulfonamide]: the IC50 was 2680 nM on Nav 1.7 [1], 4910 nM at Nav 1.7 [2] and above 10 µM against Nav 1.5 [4].
